# Test results from patent US8524861B2, “Treatment of bacterial infections” (priority 2004, dated 2013).
# How the values were obtained:
# Format in all cases: cell-based
# [1] = tested on: Pseudomonas aeruginosa (ATCC strain 9027); conditions: summary in description
# Description: Bacterial Stocks—ATCC derived stock bacteria were obtained from Oxoid Limited. Pseudomonas aeruginosa (ATCC strain 9027) or Staphylococcus aureus (ATCC strain 6538P) were obtained in ‘Cultiloop’ format. Stocks were prepared by inoculating 20 ml of LB broth with a single Cultiloop, and incubating overnight at 37° C. Cells present after overnight incubation were harvested by removing larger aggregates by centrifugation (3000 g, 10 minutes), and withdrawing 16 ml of the supernatant, which was likely to contain mainly planktonic bacteria. To this, 4 ml of sterile glycerol was added (the latter having been sterilised by autoclaving). The resultant suspension was divided between 15× 1 ml cryovials before freezing at −85° C.
# Preliminary experiments were carried out to estimate the amount to dilute bacterial stocks which when on addition of 25 μl of diluted stock to 100 μl of fresh LB broth would result in bacteria in log phase growth after overnight incubation at 37° C.
# The peptides were examined for antibacterial efficacy against Staphylococcus aureus. To test the efficacy of peptides, dilutions of test peptides or PBS (for use as a control) were prepared in LB broth, and 100 μl aliquots of these placed in 96-well plates. A vial of planktonic bacterial stock was thawed in a 37° C. incubator and diluted to the level previously determined which would produce log phase growth after overnight incubation (see above). 25 μl of this bacterial dilution was then added to the test wells (some wells containing LB broth without peptide were left without any bacterial inoculation, these being used as a blank). After overnight growth, the concentration of bacteria in individual wells was assessed by measuring absorbance at 620 nm, in a microplate spectrophotometer. The average absorbance of wells for specific concentrations of peptides was calculated, and from this the percentage inhibition (relative to untreated wells) was also calculated and plotted against concentration (along with an estimate of error on that % inhibition).
# Peptides in accordance with the invention were also examined for antibacterial efficacy against Pseudomonas aeruginosa using the same technique as described above to calculate the IC50 values.
# Points were obtained by dividing the average for six treated wells by the average for six untreated wells, and bars show an estimate of the error for these calculated values.
# The inventor constructed an expanded library of peptides derived from either apolipoprotein B or apolipoprotein E in order to further evaluate polypeptides in accordance with the invention. Further experiments were then conducted to investigate the antibacterial activity of this peptide library against the bacteria P. aeroginosa, S. aureus and S. pneumoniae. The methods used to determine the IC50 values for each peptide were as described in the Example 1.
# Pseudomonas aeruginosa [2] = experiment: Antibacterial efficacy on peptide pre-treated contact lenses; conditions: lens pre-treated with 250 μM peptide for 2 hours
# Description: Referring to FIG. 2, there is shown a bar graph illustrating growth of Pseudomonas aeruginosa overnight on Johnson and Johnson Acuvue contact lenses following pre-treatment with polypeptide GIN 1p, or a control treatment. Growth was measured by examination by light microscopy, and by assessing metabolic activity of any bacteria present using MTT reduction. The data illustrates the efficacy of the antibacterial nature of the peptides according to the invention when applied to contact lenses. Antibacterial activity was assessed by measuring MTT reduction.
# Lenses were placed in 24-well plates before treatment with 75 μl of 250 μM GIN-1p in PBS (pH7.4) or with 75 μl of PBS and incubated for 2 hours at […], before removal of these solutions from the lens by aspiration. A further 1 ml of PBS was then added to the wells to wash away any loosely attached peptide, before aspiration of this wash solution. […]
# The plates were returned to the incubator at 37° C. overnight. […] The degree of formazan production was assessed by measuring absorbance at 540 nm for aliquots of these solutions; these values are shown in FIG. 2, and represent the average for four lenses, with the bars showing standard deviation. […]
# Pseudomonas aeruginosa [3] = tested on: Pseudomonas aeruginosa
# Description: To test the effect of treatment of the polypeptides according to the invention by autoclaving, a 400 μM stock solution of GIN1p was prepared in PBS, and 420 μl aliquots were placed in four Eppendorf tubes (with screw lids). After securing the lids, two of the tubes were loaded into a metal rack held within a Pyrex beaker, and placed into a Prestige Medical Clinical Autoclave. The remaining two tubes were left untreated, as a control. The autoclave was then activated, and underwent two autoclave cycles, each of which involved exposure of the peptide solutions to 126° C. for 11 min. Finally, efficacy of the two autoclaved and the two control peptide samples against P. aeruginosa was tested as previously described.
# Referring to FIG. 7, there is shown the level of growth of Pseudomonas aeruginosa after exposure of a bacterial inoculum to various concentrations of GIN 1p (a polypeptide in accordance with the present invention) which had been either autoclaved or without autoclaving, expressed as a % of growth for untreated bacteria. Accordingly, polypeptides according to the invention are therefore suitable for use with products, which would normally be sterilised by autoclaving during the manufacturing procedure.
substance,measurement,setting,value
Ac-LRKLRKRLLLRKLRKRLL-NH2 [MU_10],"Effectiveness against Pseudomonadales, in particular P. aeruginosa, in words",[1],particularly effective
same,Appearance of solution containing pre-treated contact lens after overnight incubation,"Pseudomonas aeruginosa [2]; 10^4 challenge organisms, FIG. 3",colourless
same,Bacterial growth on contact lens surface by light micrograph after overnight incubation,Pseudomonas aeruginosa [2]; FIG. 4,minimal bacterial growth
same,IC50,Pseudomonas aeruginosa [3],~2000 nM
